Test results from paper PMC7265341, “Quantifying CDK inhibitor selectivity in live cells” (Nature Communications, 2020).
Like-named read-outs stand apart in the source and are kept apart here.

Key:
CDK20/Cyclin H = CDK20/Cyclin H (Homo sapiens, UniProt Q8IZL9); experiment: NanoBRET live-cell target engagement, NanoLuc-CDK20/Cyclin H in HEK-293; assay type: binding; conditions: 10µM, read-out: CDK20/H Inhibition at 10µM (%)
CDK19/Cyclin C = CDK19/Cyclin C (Homo sapiens, UniProt Q9BWU1); experiment: NanoBRET live-cell target engagement, NanoLuc-CDK19/Cyclin C in HEK-293; conditions: read-out: CDK19/C Inhibition at 10µM (%), 10µM
CDK19/Cyclin C, sequence (Q9BWU1 whole entry): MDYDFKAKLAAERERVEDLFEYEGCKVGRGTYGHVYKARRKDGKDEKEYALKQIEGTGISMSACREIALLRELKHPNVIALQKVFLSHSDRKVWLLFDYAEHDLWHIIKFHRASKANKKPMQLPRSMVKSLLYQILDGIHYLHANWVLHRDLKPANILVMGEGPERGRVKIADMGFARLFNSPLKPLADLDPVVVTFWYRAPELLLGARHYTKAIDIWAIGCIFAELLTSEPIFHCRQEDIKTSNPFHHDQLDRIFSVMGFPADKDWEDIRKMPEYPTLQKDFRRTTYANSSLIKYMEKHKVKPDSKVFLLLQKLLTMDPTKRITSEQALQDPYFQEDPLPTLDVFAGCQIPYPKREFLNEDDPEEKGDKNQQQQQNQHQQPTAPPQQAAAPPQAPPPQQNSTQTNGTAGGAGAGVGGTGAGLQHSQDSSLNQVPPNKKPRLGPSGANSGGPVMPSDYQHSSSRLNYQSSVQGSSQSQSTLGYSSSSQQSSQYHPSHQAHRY
CDK19/Cyclin C, sequence (P24863 whole entry partner): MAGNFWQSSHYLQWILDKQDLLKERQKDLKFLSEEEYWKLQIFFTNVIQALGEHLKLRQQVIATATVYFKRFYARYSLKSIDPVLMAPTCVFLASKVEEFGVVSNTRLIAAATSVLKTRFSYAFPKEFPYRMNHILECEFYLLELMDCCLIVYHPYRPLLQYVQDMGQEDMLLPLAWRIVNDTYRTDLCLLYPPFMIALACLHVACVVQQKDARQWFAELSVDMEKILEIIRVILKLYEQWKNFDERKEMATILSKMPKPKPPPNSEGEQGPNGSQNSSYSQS

CDK9/Cyclin K = CDK9/Cyclin K (Homo sapiens, UniProt P50750); experiment: NanoBRET live-cell target engagement, NanoLuc-CDK9/Cyclin K in HEK-293; assay type: binding; conditions: 10µM, read-out: CDK9/K Inhibition at 10µM (%)
CDK16/Cyclin Y = CDK16/Cyclin Y (Homo sapiens, UniProt Q00536); experiment: NanoBRET live-cell target engagement, CDK16-NanoLuc/Cyclin Y in HEK-293; assay type: binding; conditions: 10µM, read-out: CDK16/Y Inhibition at 10µM (%)
CDK6/Cyclin D1 = CDK6/Cyclin D1 (Homo sapiens, UniProt Q00534); experiment: NanoBRET live-cell target engagement, NanoLuc-CDK6/Cyclin D1 in HEK-293; assay type: binding; conditions: 10µM, read-out: CDK6/D1 Inhibition at 10µM (%)
CDK4/Cyclin D1 = CDK4/Cyclin D1 (Homo sapiens, UniProt P11802); experiment: NanoBRET live-cell target engagement, NanoLuc-CDK4/Cyclin D1 in HEK-293; assay type: binding; conditions: 10µM, read-out: CDK4/D1 Inhibition at 10µM (%)
CDK11B/Cyclin L2 = CDK11B/Cyclin L2 (Homo sapiens, UniProt P21127); experiment: NanoBRET live-cell target engagement, CDK11B-NanoLuc/Cyclin L2 in HEK-293; assay type: binding; conditions: 10µM, read-out: CDK11b/L2 Inhibition at 10µM (%)
CDK11B/Cyclin L2, sequence (P21127 1-782 isoform P21127-2): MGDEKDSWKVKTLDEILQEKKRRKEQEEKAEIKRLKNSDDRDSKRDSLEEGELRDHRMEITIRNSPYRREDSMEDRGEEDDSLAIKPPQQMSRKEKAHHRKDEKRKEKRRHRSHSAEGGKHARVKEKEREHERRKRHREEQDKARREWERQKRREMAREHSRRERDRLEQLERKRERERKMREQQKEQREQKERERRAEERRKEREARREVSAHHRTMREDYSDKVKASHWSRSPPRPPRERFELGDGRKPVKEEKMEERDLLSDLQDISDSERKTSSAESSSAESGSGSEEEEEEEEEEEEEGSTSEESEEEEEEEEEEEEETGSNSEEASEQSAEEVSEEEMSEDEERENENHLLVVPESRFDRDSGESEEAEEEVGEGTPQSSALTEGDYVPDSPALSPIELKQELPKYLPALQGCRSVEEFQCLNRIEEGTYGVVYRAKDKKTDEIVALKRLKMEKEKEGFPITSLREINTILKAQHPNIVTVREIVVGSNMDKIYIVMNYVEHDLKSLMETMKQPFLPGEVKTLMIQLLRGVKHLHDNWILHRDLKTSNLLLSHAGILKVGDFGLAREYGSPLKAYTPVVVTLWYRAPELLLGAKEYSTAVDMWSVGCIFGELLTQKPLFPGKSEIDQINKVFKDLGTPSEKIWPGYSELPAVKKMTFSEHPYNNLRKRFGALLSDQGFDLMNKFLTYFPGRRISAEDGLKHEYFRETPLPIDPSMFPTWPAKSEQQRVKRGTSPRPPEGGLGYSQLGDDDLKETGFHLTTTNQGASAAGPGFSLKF

CDK8/Cyclin C = CDK8/Cyclin C (Homo sapiens, UniProt P49336); experiment: NanoBRET live-cell target engagement, NanoLuc-CDK8/Cyclin C in HEK-293; assay type: binding; conditions: 10µM, read-out: CDK8/C Inhibition at 10µM (%)
CDK7 = CDK7 (Homo sapiens, UniProt P50613); experiment: NanoBRET live-cell target engagement, NanoLuc-CDK7 in HEK-293; assay type: binding; conditions: read-out: CDK7 Inhibition at 10µM (%), 10µM
CDK7, sequence (P50613 whole entry): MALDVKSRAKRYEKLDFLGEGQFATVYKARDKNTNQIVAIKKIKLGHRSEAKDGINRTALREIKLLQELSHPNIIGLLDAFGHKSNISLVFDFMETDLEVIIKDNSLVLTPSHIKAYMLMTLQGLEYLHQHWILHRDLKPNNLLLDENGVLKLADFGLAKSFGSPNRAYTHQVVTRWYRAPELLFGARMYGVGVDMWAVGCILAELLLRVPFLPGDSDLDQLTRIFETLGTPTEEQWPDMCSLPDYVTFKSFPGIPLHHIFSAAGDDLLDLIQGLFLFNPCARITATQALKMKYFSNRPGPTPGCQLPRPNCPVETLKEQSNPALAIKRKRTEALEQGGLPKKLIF

CDK3/Cyclin E1 = CDK3/Cyclin E1 (Homo sapiens, UniProt Q00526); experiment: NanoBRET live-cell target engagement, CDK3-NanoLuc/Cyclin E1 in HEK-293; assay type: binding; conditions: 10µM, read-out: CDK3/E1 Inhibition at 10µM (%)
CDK3/Cyclin E1, sequence (Q00526 whole entry): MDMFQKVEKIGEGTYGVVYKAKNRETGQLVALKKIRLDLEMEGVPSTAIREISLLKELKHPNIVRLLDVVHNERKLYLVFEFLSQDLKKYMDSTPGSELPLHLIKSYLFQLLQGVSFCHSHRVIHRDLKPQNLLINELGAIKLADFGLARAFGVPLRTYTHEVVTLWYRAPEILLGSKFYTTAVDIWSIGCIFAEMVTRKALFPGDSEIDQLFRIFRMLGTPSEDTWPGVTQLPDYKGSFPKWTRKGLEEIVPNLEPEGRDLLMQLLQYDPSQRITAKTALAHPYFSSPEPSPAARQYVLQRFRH
CDK3/Cyclin E1, sequence (P24864 whole entry partner): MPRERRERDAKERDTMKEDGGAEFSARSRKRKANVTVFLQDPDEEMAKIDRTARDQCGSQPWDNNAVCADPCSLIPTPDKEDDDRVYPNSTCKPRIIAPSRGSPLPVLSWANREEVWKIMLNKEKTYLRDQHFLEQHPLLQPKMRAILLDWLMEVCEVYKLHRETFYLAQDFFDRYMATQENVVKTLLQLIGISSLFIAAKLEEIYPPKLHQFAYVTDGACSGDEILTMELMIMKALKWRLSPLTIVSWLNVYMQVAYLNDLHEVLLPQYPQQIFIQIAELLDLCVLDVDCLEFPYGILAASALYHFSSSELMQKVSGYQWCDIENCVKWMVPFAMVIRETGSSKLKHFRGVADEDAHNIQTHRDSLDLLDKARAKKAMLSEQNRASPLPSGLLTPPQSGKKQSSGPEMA

CDK12/Cyclin K = CDK12/Cyclin K (Homo sapiens, UniProt Q9NYV4); experiment: NanoBRET live-cell target engagement, CDK12-NanoLuc/Cyclin K in HEK-293; assay type: binding; conditions: for inhibition at 10 µM: read-out: CDK12/K Inhibition at 10µM (%)
CDK2/Cyclin E1 = CDK2/Cyclin E1 (Homo sapiens, UniProt P24941); experiment: NanoBRET live-cell target engagement, CDK2-NanoLuc/Cyclin E1 in HEK-293; assay type: binding; conditions: 10µM, read-out: CDK2/E1 Inhibition at 10µM (%)
CDK17/Cyclin Y = CDK17/Cyclin Y (Homo sapiens, UniProt Q00537); experiment: NanoBRET live-cell target engagement, CDK17-NanoLuc/Cyclin Y in HEK-293; assay type: binding; conditions: 10µM, read-out: CDK17/Y Inhibition at 10µM (%)
CDK14/Cyclin Y = CDK14/Cyclin Y (Homo sapiens, UniProt O94921); experiment: NanoBRET live-cell target engagement, CDK14-NanoLuc/Cyclin Y in HEK-293; assay type: binding; conditions: 10µM, read-out: CDK14/Y Inhibition at 10µM (%)
CDK1/Cyclin E1 = CDK1/Cyclin E1 (Homo sapiens, UniProt P06493); experiment: NanoBRET live-cell target engagement, CDK1-NanoLuc/Cyclin E1 in HEK-293; assay type: binding; conditions: 10µM, read-out: CDK1/E1 Inhibition at 10µM (%)
CDK1/Cyclin E1, sequence (P06493 whole entry): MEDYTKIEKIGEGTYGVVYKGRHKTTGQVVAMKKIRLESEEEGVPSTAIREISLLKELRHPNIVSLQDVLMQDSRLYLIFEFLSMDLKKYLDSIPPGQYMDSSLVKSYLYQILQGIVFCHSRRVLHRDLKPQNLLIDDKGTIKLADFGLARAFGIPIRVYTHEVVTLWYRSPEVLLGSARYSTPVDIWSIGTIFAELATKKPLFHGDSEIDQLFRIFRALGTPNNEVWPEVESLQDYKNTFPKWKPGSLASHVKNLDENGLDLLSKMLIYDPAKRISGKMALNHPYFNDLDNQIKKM
CDK1/Cyclin E1, sequence (P24864 whole entry partner): as the sequence (P24864 whole entry partner) above

CDK18/Cyclin Y = CDK18/Cyclin Y (Homo sapiens, UniProt Q07002); experiment: NanoBRET live-cell target engagement, CDK18-NanoLuc/Cyclin Y in HEK-293; assay type: binding; conditions: 10µM, read-out: CDK18/Y Inhibition at 10µM (%)
CDK10/Cyclin L2 = CDK10/Cyclin L2 (Homo sapiens, UniProt Q15131); experiment: NanoBRET live-cell target engagement, CDK10-NanoLuc/Cyclin L2 in HEK-293; conditions: read-out: CDK10/L2 Inhibition at 10µM (%), 10µM
CDK13/Cyclin K = CDK13/Cyclin K (Homo sapiens, UniProt Q14004); experiment: NanoBRET live-cell target engagement, CDK13-NanoLuc/Cyclin K in HEK-293; assay type: binding; conditions: for inhibition at 10 µM: read-out: CDK13/K Inhibition at 10µM (%)
CDK13/Cyclin K, sequence (O75909 whole entry): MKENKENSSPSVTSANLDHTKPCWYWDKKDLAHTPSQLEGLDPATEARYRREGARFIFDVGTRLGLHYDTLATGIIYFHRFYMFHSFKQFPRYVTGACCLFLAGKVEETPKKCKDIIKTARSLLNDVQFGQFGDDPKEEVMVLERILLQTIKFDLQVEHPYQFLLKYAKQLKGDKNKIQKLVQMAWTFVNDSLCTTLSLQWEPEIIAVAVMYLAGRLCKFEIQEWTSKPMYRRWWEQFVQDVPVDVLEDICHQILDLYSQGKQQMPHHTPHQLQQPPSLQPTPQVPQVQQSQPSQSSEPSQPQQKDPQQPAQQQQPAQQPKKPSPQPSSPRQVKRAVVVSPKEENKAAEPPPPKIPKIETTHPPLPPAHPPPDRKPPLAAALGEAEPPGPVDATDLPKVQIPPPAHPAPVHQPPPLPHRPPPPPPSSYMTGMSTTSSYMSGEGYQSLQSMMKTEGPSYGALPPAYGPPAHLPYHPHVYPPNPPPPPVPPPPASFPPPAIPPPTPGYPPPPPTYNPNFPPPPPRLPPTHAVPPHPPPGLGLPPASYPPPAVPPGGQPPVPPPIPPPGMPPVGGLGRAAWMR
CDK13/Cyclin K, sequence (Q14004 other isoform, or with tags, fused parts or gaps): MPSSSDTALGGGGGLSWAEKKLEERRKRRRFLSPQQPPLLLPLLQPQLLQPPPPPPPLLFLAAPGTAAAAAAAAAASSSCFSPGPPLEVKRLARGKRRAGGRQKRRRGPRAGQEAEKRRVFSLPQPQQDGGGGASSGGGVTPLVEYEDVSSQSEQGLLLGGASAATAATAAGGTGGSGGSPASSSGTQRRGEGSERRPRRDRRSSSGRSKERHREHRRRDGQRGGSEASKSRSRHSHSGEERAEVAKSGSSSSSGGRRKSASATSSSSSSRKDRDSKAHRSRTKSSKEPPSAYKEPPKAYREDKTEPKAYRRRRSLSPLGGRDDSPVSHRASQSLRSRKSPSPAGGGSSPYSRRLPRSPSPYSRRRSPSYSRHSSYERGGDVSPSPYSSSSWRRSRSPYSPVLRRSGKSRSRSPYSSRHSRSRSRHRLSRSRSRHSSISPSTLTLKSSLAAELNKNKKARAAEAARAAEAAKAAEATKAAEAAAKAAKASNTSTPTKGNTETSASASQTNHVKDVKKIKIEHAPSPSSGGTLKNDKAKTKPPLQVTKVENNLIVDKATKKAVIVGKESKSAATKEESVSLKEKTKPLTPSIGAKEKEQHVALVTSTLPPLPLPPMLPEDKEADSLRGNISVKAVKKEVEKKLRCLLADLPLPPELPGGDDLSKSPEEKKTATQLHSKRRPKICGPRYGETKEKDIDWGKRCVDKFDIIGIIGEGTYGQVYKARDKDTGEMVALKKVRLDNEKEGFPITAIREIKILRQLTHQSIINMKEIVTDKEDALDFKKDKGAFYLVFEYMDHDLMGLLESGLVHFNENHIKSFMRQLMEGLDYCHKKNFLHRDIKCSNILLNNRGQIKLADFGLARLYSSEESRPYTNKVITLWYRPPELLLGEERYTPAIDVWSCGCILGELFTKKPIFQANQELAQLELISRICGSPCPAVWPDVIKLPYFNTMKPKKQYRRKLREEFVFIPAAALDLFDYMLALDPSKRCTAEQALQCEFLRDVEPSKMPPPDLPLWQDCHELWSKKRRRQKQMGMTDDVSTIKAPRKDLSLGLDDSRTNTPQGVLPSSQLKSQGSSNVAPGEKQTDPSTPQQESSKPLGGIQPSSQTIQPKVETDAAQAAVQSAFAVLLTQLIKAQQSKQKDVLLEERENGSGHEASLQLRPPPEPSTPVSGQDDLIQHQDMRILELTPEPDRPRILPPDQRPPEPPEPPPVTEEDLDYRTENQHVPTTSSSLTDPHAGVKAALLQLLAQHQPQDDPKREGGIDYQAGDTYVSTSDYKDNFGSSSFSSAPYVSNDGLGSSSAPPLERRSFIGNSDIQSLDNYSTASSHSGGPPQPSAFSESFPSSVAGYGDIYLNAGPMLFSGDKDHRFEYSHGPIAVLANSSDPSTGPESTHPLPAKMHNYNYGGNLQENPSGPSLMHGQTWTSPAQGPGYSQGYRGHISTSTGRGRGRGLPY

CDK15/Cyclin Y = CDK15/Cyclin Y (Homo sapiens, UniProt Q96Q40); experiment: NanoBRET live-cell target engagement, NanoLuc-CDK15/Cyclin Y in HEK-293; assay type: binding; conditions: 10µM, read-out: CDK15/Y Inhibition at 10µM (%)
CDK5/CDK5R1 = CDK5/CDK5R1 (Homo sapiens, UniProt Q00535); experiment: NanoBRET live-cell target engagement, CDK5-NanoLuc/CDK5R1 in HEK-293; assay type: binding; conditions: 10µM, read-out: CDK5/CDK5R1 Inhibition at 10µM (%)

SMILES: CN(C)C/C=C/C(=O)Nc1ccc(C(=O)N2CCC[C@@H](Nc3ncc(Cl)c(-c4c[nH]c5ccccc45)n3)C2)cc1 [THZ531]
- inhibition at 10 µM (CDK20/Cyclin H; independent experiment 1): 30.9%
- inhibition at 10 µM (CDK20/Cyclin H; independent experiment 2): 52.4%
- inhibition at 10 µM (CDK19/Cyclin C; average of experiments): 55.3%
- inhibition at 10 µM (CDK19/Cyclin C; independent experiment 1): 58.1%
- inhibition at 10 µM (CDK19/Cyclin C; independent experiment 2): 52.6%
- inhibition at 10 µM (CDK9/Cyclin K; average of experiments): 81.1%
- inhibition at 10 µM (CDK9/Cyclin K; independent experiment 1): 78.5%
- inhibition at 10 µM (CDK9/Cyclin K; independent experiment 2): 83.8%
- inhibition at 10 µM (CDK16/Cyclin Y; independent experiment 1): 75.1%
- inhibition at 10 µM (CDK16/Cyclin Y; independent experiment 2): 49.9%
- inhibition at 10 µM (CDK6/Cyclin D1; average of experiments): 36.6%
- inhibition at 10 µM (CDK6/Cyclin D1; independent experiment 1): 32%
- inhibition at 10 µM (CDK6/Cyclin D1; independent experiment 2): 41.3%
- inhibition at 10 µM (CDK4/Cyclin D1; average of experiments): 54.6%
- inhibition at 10 µM (CDK4/Cyclin D1; independent experiment 1): 47.7%
- inhibition at 10 µM (CDK4/Cyclin D1; independent experiment 2): 61.5%
- inhibition at 10 µM (CDK11B/Cyclin L2; average of experiments): 32.4%
- inhibition at 10 µM (CDK11B/Cyclin L2; independent experiment 1): 30%
- inhibition at 10 µM (CDK11B/Cyclin L2; independent experiment 2): 34.7%
- inhibition at 10 µM (CDK8/Cyclin C; average of experiments): 41%
- inhibition at 10 µM (CDK8/Cyclin C; independent experiment 1): 30.9%
- inhibition at 10 µM (CDK8/Cyclin C; independent experiment 2): 51.2%
- inhibition at 10 µM (CDK7; average of experiments): 78.1%
- inhibition at 10 µM (CDK7; independent experiment 1): 74.8%
- inhibition at 10 µM (CDK7; independent experiment 2): 81.5%
- inhibition at 10 µM (CDK3/Cyclin E1; average of experiments): 61.1%
- inhibition at 10 µM (CDK3/Cyclin E1; independent experiment 1): 57.1%
- inhibition at 10 µM (CDK3/Cyclin E1; independent experiment 2): 65.2%
- inhibition at 10 µM (CDK12/Cyclin K; average of experiments): 65.1%
- inhibition at 10 µM (CDK12/Cyclin K; independent experiment 1): 75.9%
- inhibition at 10 µM (CDK12/Cyclin K; independent experiment 2): 54.3%
- IC50 (CDK12/Cyclin K; independent experiment 1, read-out: CDK12/K IC50): 0.54 µM
- IC50 (CDK12/Cyclin K; independent experiment 2, read-out: CDK12/K IC50): 1 µM
- IC50 (CDK12/Cyclin K; live HEK-293, 2 h, mean ± S.E.M. (n=3) or mean (n=2), read-out: IC50 for CDK/cyclin complexes, CDK12/K): 0.77 µM
- IC50 (CDK12/Cyclin K; live HEK-293, read-out: CDK12 engagement potency): < 1 µM
- CDK12 occupancy at 10 µM (CDK12/Cyclin K; primary screen, live HEK-293): occupied
- receptor occupancy at 10 µM (CDK12/Cyclin K; read-out: CDK12 occupancy at 10 µM): ~50%
- inhibition at 10 µM (CDK2/Cyclin E1; average of experiments): 52.7%
- inhibition at 10 µM (CDK2/Cyclin E1; independent experiment 1): 46.1%
- inhibition at 10 µM (CDK2/Cyclin E1; independent experiment 2): 59.3%
- inhibition at 10 µM (CDK17/Cyclin Y; average of experiments): 63%
- inhibition at 10 µM (CDK17/Cyclin Y; independent experiment 1): 73.4%
- inhibition at 10 µM (CDK17/Cyclin Y; independent experiment 2): 52.6%
- inhibition at 10 µM (CDK14/Cyclin Y; average of experiments): 41.8%
- inhibition at 10 µM (CDK14/Cyclin Y; independent experiment 1): 22.4%
- inhibition at 10 µM (CDK14/Cyclin Y; independent experiment 2): 61.2%
- inhibition at 10 µM (CDK1/Cyclin E1; average of experiments): 61.4%
- inhibition at 10 µM (CDK1/Cyclin E1; independent experiment 1): 48.6%
- inhibition at 10 µM (CDK1/Cyclin E1; independent experiment 2): 74.1%
- inhibition at 10 µM (CDK18/Cyclin Y; average of experiments): 64.6%
- inhibition at 10 µM (CDK18/Cyclin Y; independent experiment 1): 71.7%
- inhibition at 10 µM (CDK18/Cyclin Y; independent experiment 2): 57.6%
- inhibition at 10 µM (CDK10/Cyclin L2; average of experiments): 51%
- inhibition at 10 µM (CDK10/Cyclin L2; independent experiment 1): 41.2%
- inhibition at 10 µM (CDK10/Cyclin L2; independent experiment 2): 60.7%
- inhibition at 10 µM (CDK13/Cyclin K; average of experiments): 53.1%
- inhibition at 10 µM (CDK13/Cyclin K; independent experiment 1): 48.6%
- inhibition at 10 µM (CDK13/Cyclin K; independent experiment 2): 57.6%
- IC50 (CDK13/Cyclin K; live HEK-293, response to reviewers, read-out: CDK13 IC50 (follow up)): ~2 µM
- CDK13 occupancy at 10 µM (CDK13/Cyclin K; primary screen, live HEK-293): occupied
- receptor occupancy at 10 µM (CDK13/Cyclin K; primary screen, live HEK-293): ~50%
- inhibition at 10 µM (CDK15/Cyclin Y; average of experiments): 80.5%
- inhibition at 10 µM (CDK15/Cyclin Y; independent experiment 1): 75.6%
- inhibition at 10 µM (CDK15/Cyclin Y; independent experiment 2): 85.5%
- inhibition at 10 µM (CDK5/CDK5R1; average of experiments): 45.3%
- inhibition at 10 µM (CDK5/CDK5R1; independent experiment 1): 30.8%
- inhibition at 10 µM (CDK5/CDK5R1; independent experiment 2): 59.9%
